# Laboratory results published in patent publication US8969295B2, “Identifying and modulating molecular pathways that mediate nervous system plasticity” (Massachusetts Institute of Technology, priority 2006, dated 2015).
# “Also recorded” adds a separate entry of the source.
# Columns and labels:
# ischemia in the CNS = settings: intra-peritoneal administration; cited from earlier work
# [1] = system: visual cortex gene expression; experiment: Microarray analysis of MD+IGF1 animals versus MD animals, all genes; assay type: in vivo, mouse; settings: 4 days MD + daily IP IGF1, microarray
# Experimental: (§1) In additional experiments in which the effects of short-term (4 days from P23-27) MD were investigated, as well the effects of IGF1 infusion concurrent with MD, a total of four experimental groups were analyzed: a new group of control animals (3 samples), the ipsilateral and the contralateral cortex of mice monocularly deprived for four days (3 samples for the ipsilateral and 3 samples for the contralateral cortex), the contralateral cortex of mice that were monocularly deprived for four days and were injected IP daily with IGF1 solution (3 samples). Tissue was removed and the RNA extracted as described above, and labeled RNA was hybridized to the Affymetrix mouse genome 430.2 chip, which contains oligonucleotides that correspond to a total of 42,000 probes targeting genes and ESTs.
# (§2) A method for the Significance Analysis of Microarrays to assess changes in gene expression was used^31, and the method was implemented in MATLAB (The Mathworks, Natick, Mass.). The method allows the comparison of the expression level of each gene under two conditions (e.g., MD vs. control; or DR vs. control). […] Correlations between replicates were calculated as correlation coefficients (c.c.) for all conditions: control (c.c.=0.99±0.002), MD 16 days (c.c.=0.9±0.05), MD 4 days contralateral (c.c.=0.99±0.001), MD 4 days ipsilateral (0.99±0.005), MD 4 days contralateral plus IGF1 (c.c.=0.99±0.004). […]
# [2] = system: Phosphatidylinositol 3-Kinase (PI3K); experiment: Immunostaining in V1 after MD with concurrent IGF1; assay type: in vivo, mouse; settings: short-term (4 days) MD + daily IP IGF1; P<0.05
# Experimental: as §1
# (§3) Mice were anesthetized and transcardially perfused with a solution of 4% paraformaldehyde. The appropriate brain hemispheres were removed and equilibrated in 30% sucrose in PBS. Coronal sections containing visual cortex were cut using a freezing microtome. Immunohistochemistry for GluR1 (1:500, Upstate), IGFBP5 (1:500, USBiological), CaMK2alpha (1:500, Sigma), PhosphoCREB (1:500, Cell Signaling), activated Stat1 (1:500, Abcam), parvalbumin (1:1000, Chemicon), calretinin (1:500, Chemicon), somatostatin (1:300, Chemicon), neuropeptideY (1:400, Chemicon), synapsin 1 (1:500, Chemicon), IGF1 (1:250, Chemicon), GAD 67 (1:400, Chemicon), IGF1R (1:500, Upstate), PI3K—catalytic subunit 110 (1:400, Upstate), phosphorylated-Akt (1:250, Cell Signaling), was carried out as described elsewhere^82,83. For each staining, analysis was repeated in parallel for control and deprived animals. Experiments were carried out at least on two animals for each group and repeated twice. The intensity of staining in sections from control and deprived animals was evaluated with ImageJ software (rsb.info.nih.gov/ij/). Counts of parvalbumin, calretinin, somatostatin and NPY-positive cells were performed as described elsewhere^29.
# (§4) For IGF1 treatment, a solution containing GPE, the functional peptide of IGF1, was prepared as described^56: 300 μg of GPE was injected intra-peritoneally daily for the entire period of deprivation. This peptide is referred to as “IGF1” in the Results below.
# IGF1 receptor (IGF1R) = experiment: Immunostaining in V1 after MD with concurrent IGF1; assay type: in vivo, mouse; settings: short-term (4 days) MD + daily IP IGF1
# Experimental: as §1, §3, §4
# synapsin 1 = experiment: Immunostaining in V1 after MD with concurrent IGF1; assay type: in vivo, mouse; settings: short-term (4 days) MD + daily IP IGF1; P<0.05
# Experimental: as §1, §3, §4
# phosphorylated-Akt = experiment: Immunostaining in V1 after MD with concurrent IGF1; assay type: in vivo, mouse; settings: short-term (4 days) MD + daily IP IGF1
# Experimental: as §1, §3, §4
# IGFBP5 [3] = experiment: Immunostaining in V1 after MD with concurrent IGF1; assay type: in vivo, mouse; settings: short-term (4 days) MD + daily IP IGF1, cortex contralateral to deprived eye
# Experimental: as §1, §3, §4
# [4] = in vivo; cited from earlier work
# PI3K = experiment: Microarray analysis of MD+IGF1 animals versus MD animals; assay type: in vivo, mouse; settings: 4 days MD + daily IP IGF1, contralateral cortex; P<0.01
# Experimental: as §1, §2
# IGFBP5 [5] = experiment: as above; assay type: in vivo, mouse; settings: 4 days MD + daily IP IGF1, contralateral cortex; P<0.01
# Experimental: as §1, §2
# binocular portion of V1 = experiment: Optical imaging of intrinsic signals in V1: ocular dominance after monocular deprivation (MD) with IGF1; assay type: in vivo, mouse
# Experimental: For monocular deprivation, animals were anesthetized with avertin (0.016 ml/g) and the eyelids of one eye were sutured (at P20-22 for 7 days for imaging experiments). Before imaging, the suture was removed and the deprived eye re-opened. Only animals in which the deprivation sutures were intact and the condition of the deprived eye appeared healthy were used for the imaging session. For DR animals (aged P27-30), the procedure was the same described above, with the exception that the animals were anesthetized in darkness and not exposed to light until deeply anaesthetized; in these mice only the binocular response was evaluated and compared to that in control animals.
# Mice (129/SvEv and C57B1/6) aged P26-30 were anesthetized with urethane (1.5 g/Kg) and chlorprothixene (0.2 mg), as described^84. Skin was excised and the skull exposed over V1. A custom-made attachment was used to fix the head and minimize movements. The cortex was covered with agarose solution (1.5%) and a glass cover slip. During the imaging session the animal's body temperature was kept constant with a heating blanket and the EKG monitored constantly. […]
# A temporal high pass filter (135 frames) was employed to remove slow noise components, after which the temporal Fast Fourier Transform (FFT) component at the stimulus frequency ([…]) was calculated pixel by pixel from the whole set of images. […]
# cGMP = settings: Leamey et al., 2001; cited from earlier work
# PKC = settings: Nishiyama et al., 2003; cited from earlier work
compound,measurement,setting,value
"IGF1: GPE, the functional peptide of IGF1 (tripeptide), referred to as IGF1 in the Results of Example 4 (Insulin-like growth factor I; UniProt P05019 49-51, looked up, fragment)",effects of ischemia in the CNS,ischemia in the CNS,prevents the effects of ischemia in the CNS
same,genes significantly altered in expression in MD+IGF1 animals compared to MD animals,[1],only a small fraction of genes was significantly altered
same,"PI3K expression, immunostaining in V1",[2],fully restored
same,"Expression of the IGF1 receptor (IGF1R), immunostaining in V1",IGF1 receptor (IGF1R),partially restored
same,"level of synapsin expression, immunostaining for synapsin 1 in V1",synapsin 1,significant increase
same,"Expression of phosphorylated-Akt, immunostaining in V1",phosphorylated-Akt,restored
same,IGFBP5 immunostaining in V1,IGFBP5 [3],no change from normal levels
same,ability to cross the blood brain barrier,[4],able to cross the blood brain barrier
same,PI3K microarray expression compared to MD alone,PI3K,upregulated
same,IGFBP5 microarray expression compared to MD alone,IGFBP5 [5],significantly downregulated
same,shift of mean ocular dominance index across animals relative to control,"binocular portion of V1; 7 days MD + IGF1 i.p., n=3, P>0.2 vs control",prevented the shift
same,ocular dominance shift towards the open eye (ocular dominance distribution of pixels within the binocular zone),"binocular portion of V1; 7 days MD during critical period, 300 μg GPE intra-peritoneally daily for the period of deprivation",prevented the ocular dominance shift towards the open eye; also recorded: prevents the ocular dominance shift
O=c1onc2cnc3ccccc3n12 [ODQ],effective dose for influencing axon growth,cGMP,about 10 μM
CN(C)CCCn1cc(C2=C(c3c[nH]c4ccccc34)C(=O)NC2=O)c2ccccc21 [GF109203X],Effective doses in slices,PKC,10 to 100 µM
